Patent publication US7772402B2, “Optically detectable organophosphonates” (Austria Wirtschaftsservice Gesellschaft Mit Beschrankter …, priority 2003, dated 2010)

Columns and labels:
[1] = biological target: T1, lipase from Pseudomonas cepacia (PCL) (Burkholderia cepacia, UniProt P22088); assay: Inhibition of lipase activity in Triton X-100 micelles, continuous fluorescence method; type: biochemical; settings: incubation 4° C., 16 hrs; FIG. 3b
T1 construct: R.D. Schmid, University of Stuttgart (obtained, not a commercial purchase)
Experimental: (§1) Inhibition of lipase activity by the water-insoluble phosphonates was performed in Triton X-100 micelles (2 mM final concentration) and measured by a continuous fluorescence method according to Duque et al, (J. Lipid Res. 37, 868-876 (1996)) using 3-O-hexadecyl-2-pyrenedecanoyl-1-trinitrophenylaminododecanoyl-sn-glycerol as a substrate. Lipase activity was determined at 30° C. from the dequenching of pyrene fluorescence at 378 nm (excitation at 342 nm, slit widths 5.0 nm each) (the initial linear increase in fluorescence intensity after addition of the lipase was used to measure enzyme activity). The measurements were performed in ethanol-water (1:3 by vol.) as a solvent.
(§2) Triton X-100 specially purified for membrane research (Hofmann La Roche) (10 μL of a 100 mM stock solution in chloroform) and the appropriate volume of a phosphonate solution in chloroform were mixed and the solvent was removed under a stream of nitrogen. The residue was dispersed in an 100 μM Tris-HCl puffer (pH 7.40 at 37° C.) by vigorous vortexing followed by addition of an aliquot of a lipase solution, giving a total volume of 500 μL. Incubations were performed at 4° C. The percentage of inhibition after 16 hrs in the reaction mixture was determined by measuring the residual lipase activity of appropriate aliquots (3 μL) as indicated above. Controls were run in parallel under identical conditions but in the absence of inhibitors.
(§3) The novel compounds were tested with respect to their ability to inhibit three selected microbial lipases with different substrate preferences. The lipase from Rhizopus oryzae was efficiently inactivated by the perylene- and NBD-inhibitors (FIG. 3a) at 4° C. for 16 hrs in 100 μM Tris-HCl puffer at inhibitor and lipase concentrations of 1.0 mM and 0.1 mM, respectively. […] This is in line with the assumption that lipases prefer long-chain glycerol esters as substrates, and evidently inhibitors as well. […] In contrast, the Pseudomonas species lipase was quantitatively inactivated by all synthesized organophosphonates (FIG. 3c).

[2] = biological target: T2, lipase from Rhizopus oryzae (ROL) (Rhizopus oryzae, UniProt P61872); assay: as above; type: biochemical; settings: 4° C. for 16 hrs, 100 μM Tris-HCl puffer, inhibitor 1.0 mM, lipase 0.1 mM; FIG. 3a
T2 construct: F. Spener and L. Haalck, University of Münster (gift)
T2 sequence (P61872 96-392): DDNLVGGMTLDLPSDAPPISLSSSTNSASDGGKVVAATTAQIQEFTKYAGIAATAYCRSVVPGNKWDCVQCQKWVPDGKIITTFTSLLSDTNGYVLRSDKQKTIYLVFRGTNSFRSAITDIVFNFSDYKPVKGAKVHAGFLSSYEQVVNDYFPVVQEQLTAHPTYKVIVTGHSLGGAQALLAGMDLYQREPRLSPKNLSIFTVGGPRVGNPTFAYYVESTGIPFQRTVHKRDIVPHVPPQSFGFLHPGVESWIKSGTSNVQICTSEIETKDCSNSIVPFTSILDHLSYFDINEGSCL
Experimental: as §1, §2, §3

T1 sequence (P22088 45-364): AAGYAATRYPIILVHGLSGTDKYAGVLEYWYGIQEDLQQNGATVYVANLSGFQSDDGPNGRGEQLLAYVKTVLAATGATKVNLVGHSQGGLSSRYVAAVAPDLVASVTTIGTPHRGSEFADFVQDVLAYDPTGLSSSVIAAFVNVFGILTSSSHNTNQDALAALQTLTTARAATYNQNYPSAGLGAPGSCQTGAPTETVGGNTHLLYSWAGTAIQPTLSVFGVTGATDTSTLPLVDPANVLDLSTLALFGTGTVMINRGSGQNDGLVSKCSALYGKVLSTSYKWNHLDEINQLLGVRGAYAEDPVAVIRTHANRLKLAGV

CCCCCCCCOCC(COP(=O)(CCCCCC)Oc1ccc([N+](=O)[O-])cc1)NC(=O)CCCc1ccc2c3cccc4cccc(c5cccc1c52)c43 (stereo not drawn) [XXII, 2-(4-(3-Perylenyl)butanoyl)amino-2-deoxy-3-O-octyl-sn-glycero-1-O-hexylphosphonate p-nitrophenyl ester]
inhibition of lipase from Pseudomonas cepacia [1]: much more potent inhibitor

CCCCCCCCCCCCCCCCOCC(COP(=O)(CCCCCC)Oc1ccc([N+](=O)[O-])cc1)NC(=O)CCCCCCCc1ccc2c3cccc4cccc(c5cccc1c52)c43 (stereo not drawn) [XXIII, 2-(8-(3-Perylenyl)octanoyl)amino-2-deoxy-3-O-hexadecyl-sn-glycero-1-O-hexylphosphonate p-nitrophenyl ester]
inhibition (inactivation) of lipase from Rhizopus oryzae [2]: somewhat more active

CCCCCCCCCCCCCCCCOCC(COP(=O)(CCCCCC)Oc1ccc([N+](=O)[O-])cc1)NC(=O)CCCCCCCCCCCNc1ccc([N+](=O)[O-])c2nonc12 (stereo not drawn) [XXV, 2-(NBD-dodecanoyl)amino-2-deoxy-3-O-hexadecyl-sn-glycero-1-O-hexylphosphonate p-nitrophenyl ester]
inhibition (inactivation) of lipase from Rhizopus oryzae [2]: slightly more effective
